Laboratory results as given in patent US5273986A, “Cycloalkylthiazoles” (Hoffmann-La Roche Inc., priority 1992, dated 1993).
Read-outs that look alike come from different tables or passages of the source.

Legend:
[1] = system: LTD4-induced bronchoconstriction; assay: Antagonism of LTD4-induced bronchoconstriction in guinea pigs; assay type: in vivo, guinea pig (male, Hartley strain); details: for ED50 / inhibition in vivo at 1 mg/kg: Cavia porcellus; for inhibition in vivo at 1 mg/kg: read-out: percent inhibition at 1 mg/kg p.o., LTD4-induced bronchoconstriction (ID50 not determined)
Method: Male guinea pigs (Hartley strain, Charles River) weighing 400-600 g were anesthetized with urethane (2 g/kg) intraperitoneally, and a polyethylene cannula was inserted into the jugular vein for intravenous drug administration. Tracheal pressure (cm of H2 O) was recorded from a Statham pressure transducer (P 32 AA). Propranolol was administered 5 minutes prior to challenge with LTD4. Two minutes later spontaneous breathing was arrested with succinylcholine chloride (1.2 mg/kg) administered intravenously, and the animals were ventilated with a Harvard (Model 680) small animal respirator set at 40 breaths/min and a 4.0 cc stroke volume. Control vehicle (DMSO) or test compound was administered through the cannula into the jugular vein 1 minute before the animals were challenged with a maximum constrictory dose of LTD4 ([…] I.V.) given intravenously. The change in tracheal pressure was averaged for control and drug-treated animals and percent inhibition was calculated. For determination of oral activity, animals were dosed with test compound or vehicle (PEG400) two hours prior to challenge with LTD4 ([…], i.v.).
The relative potency of test compounds administered by the intravenous and oral route was determined by administering increasing doses of test compound at a fixed pretreatment time. The median inhibitory dose (ID50 value) was determined by linear regression of log dose-responsecurves generated by at least 3 doses that caused statistically significant inhibition between 10 and 90%. The correlation coefficient for the regression line was always greater than 0.95. For determination of the time-course of inhibition for various compounds, the time between administration of compound and challenge with LTD4 was varied. Durations of action were defined as the time for inhibitory activity to decrease to 50%.

LTD4 receptor = target: T1, LTD4 receptor (Cavia porcellus, UniProt Q2NNR5); assay: LTD4 receptor ligand binding assay (inhibition of [3H]LTD4 specific binding, guinea pig lung membranes); details: 20° C., 30 min
T1 construct: A lung homogenate was prepared from guinea pig lung membranes; from tissue; host or cells: guinea pig lung membranes
T1 sequence (Q2NNR5 1-340): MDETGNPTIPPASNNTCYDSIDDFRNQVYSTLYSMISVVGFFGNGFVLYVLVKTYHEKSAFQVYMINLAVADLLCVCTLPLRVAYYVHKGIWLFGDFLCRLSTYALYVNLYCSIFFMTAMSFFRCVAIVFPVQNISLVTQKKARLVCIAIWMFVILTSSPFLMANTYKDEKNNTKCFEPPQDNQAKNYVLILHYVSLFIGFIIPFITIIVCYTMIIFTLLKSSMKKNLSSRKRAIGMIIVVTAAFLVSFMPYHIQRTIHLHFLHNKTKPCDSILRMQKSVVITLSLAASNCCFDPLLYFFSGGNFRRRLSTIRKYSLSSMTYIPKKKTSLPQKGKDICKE
Method: A lung homogenate was prepared from guinea pig lung membranes and was resuspended in buffer containing 10 mM Tris.HCl (pH 7.5) (Hogaboom et al., Hogaboom, G. K., et al: Peptidoleukotrienes: distinct receptors for leukotriene C4 and D4 in the guinea pig lung. Biochem. Biophys. Res. Commun. 116: 1136-1143, 1983). Optimum assay conditions were determined with an assay mixture containing: 10 mM Tris.HCl (pH 7.5); 0.1% bovine serum albumin (BSA); 1 mM glycine; 1 mM cysteine; 3.5 nM [^3 H]LTD4 and the membrane preparation ([…] protein) in a final volume of […]. The incubation was carried out at 20° C. for 30 minutes. At 20° C., binding increased linearly with protein concentration, reached equilibrium in 20 minutes, was saturable, and was reversible upon addition of 1 mM unlabelled LTD4. Separation of bound from free [^3 H]LTD4 as performed by rapid filtration on GF/C glass fiber filters (Whatman International Ltd., Maidstone, England) and washing with two 4-ml aliquots of Tyrode solution (0.9 g/100 ml NaCl; 0.02 g/100 ml KCl; 0.02 g/100 ml CaCl2; 0.01 g/100 ml MgCl2; 0.1 g/100 ml glucose; 0.1 g/100 ml NaHCO3; 0.005 g/100 ml NaH2 PO4) containing 0.1% BSA. Radioactivity remaining on the filters was measured in 10 ml of Aquasol. Specific binding, was defined as that displaced by 1 mM unlabelled LTD4, and was 95% of total binding.
The inhibition of [^3 H]LTD4 specific binding by an antagonist is related to the LTD4 content of that sample by regression analysis from a "standard curve" of the inhibition of [^3 H]LTD4 specific binding by nonlabeled LTD4. The median inhibitory concentration (IC50 value) was determined by linear regression of log concentration-response curves generated by at least 3 concentrations that caused statistically significant inhibition between 10 and 90%. Results are expressed as mean±S. E. M. (standard error of the mean) of n independent experiments (separate receptor batches) conducted in duplicates.

[2] = iv, 1 min, I.V., compound 1 minute before LTD4 challenge, read-out: ID50 I.V., LTD4-induced bronchoconstriction
[3] = po, 2 h, p.o., compound two hours prior to LTD4 challenge, read-out: ID50 p.o., LTD4-induced bronchoconstriction
[4] = I.V., 1 mg/kg, compound 1 minute before LTD4 challenge
[5] = po, 2 h, p.o., 1 mg/kg, compound two hours prior to LTD4 challenge

Compound	ED50 [1, 2]	ED50 [1, 3]	also measured
CC(C)c1csc(/C=C/c2cccc(NC(=O)Cc3ccccc3C(=O)O)c2)n1 [Example 1, (E)-2-[2-[3-[2-[4-(1-Methylethyl)-2-thiazolyl]ethenyl]phenylamino]-2-oxoethyl]benzoic acid]	0.008 mg/kg	0.5 mg/kg	IC50 (LTD4 receptor): 4 nM
COC(=O)c1ccccc1CC(=O)Nc1cccc(/C=C/c2nc(C3CCC3)cs2)c1 [Example 4, (E)-2-[2-[3-[2-[4-(Cyclobutyl)-2-thiazolyl]ethenyl]phenylamino]-2-oxoethyl]benzoic Acid Methyl Ester]	0.3 mg/kg	0.3 mg/kg	
CN(C)C(=O)c1ccccc1CC(=O)Nc1cccc(/C=C/c2nc(C3CCC3)cs2)c1 [Example 5, (E)-2-[2-[3-[2-[4-(Cyclobutyl)-2-thiazolyl]ethenyl]phenylamino]-2-oxoethyl]-N,N-dimethylbenzamide]	0.005 mg/kg	0.6 mg/kg	
O=C(Cc1ccccc1CO)Nc1cccc(/C=C/c2nc(C3CCC3)cs2)c1 [Example 6, (E)-2-[2-[3-[2-[4-(Cyclobutyl)-2-thiazolyl]ethenyl]phenylamino]-2-oxoethyl]benzyl Alcohol]	0.1 mg/kg	0.3 mg/kg	
O=C(Cc1cccc(C(=O)O)c1)Nc1cccc(/C=C/c2nc(C3CCC3)cs2)c1 [Example 7b, (E)-3-[2-[3-[2-[4-(Cyclobutyl)-2-thiazolyl]ethenyl]phenylamino]-2-oxoethyl]benzoic acid]	0.3 mg/kg		
O=C(Cc1ccc(C(=O)O)cc1)Nc1cccc(/C=C/c2nc(C3CCC3)cs2)c1 [Example 8b, (E)-4-[2-[3-[2-[4-(Cyclobutyl)-2-thiazolyl]ethenyl]phenylamino]-2-oxoethyl]benzoic acid]			percent inhibition at 1 mg/kg I.V., LTD4-induced bronchoconstriction (ID50 not determined) [1, 4]: 50 ± 6%
O=C(Cc1ccccc1C(=O)O)Nc1cccc(/C=C/c2nc(C3CCCC3)cs2)c1 [Example 9, (E)-2-[2-[3-[2-[4-(Cyclopentyl)-2-thiazolyl]ethenyl]phenylamino]-2-oxoethyl]benzoic acid]	0.005 mg/kg	0.4 mg/kg	
O=C(Cc1ccccc1C(=O)O)Nc1cccc(/C=C/c2nc(C3CCCCC3)cs2)c1 [Example 10, (E)-2-[2-[3-[2-[4-(Cyclohexyl)-2-thiazolyl]ethenyl]phenylamino]-2-oxoethyl]benzoic acid]	0.02 mg/kg	0.43 mg/kg	
O=C(Cc1ccccc1C(=O)O)Nc1cccc(/C=C/c2nc(C3CCCCCC3)cs2)c1 [Example 11i, (E)-2-[2-[3-[2-[4-(Cycloheptyl)-2-thiazolyl]ethenyl]phenylamino]-2-oxoethyl]benzoic acid]	0.02 mg/kg		inhibition in vivo at 1 mg/kg [1, 5]: 42 ± 10%
O=C(Cc1ccccc1C(=O)O)Nc1cccc(/C=C/c2nc(C3CCCCCCC3)cs2)c1 [Example 12d, (E)-2-[2-[3-[2-[4-(Cyclooctyl)-2-thiazolyl]ethenyl]phenylamino]-2-oxoethyl]benzoic acid]	0.15 mg/kg		inhibition in vivo at 1 mg/kg [1, 5]: 24 ± 4%
Cc1ccc(NC(=O)Cc2ccccc2C(=O)O)cc1/C=C/c1nc(C(C)C)cs1 [Example 16g, (E)-2-[2-[4-Methyl-3-[2-[4-(1-methylethyl)-2-thiazolyl]ethenyl]phenylamino]-2-oxoethyl]benzoic acid]	0.2 mg/kg		inhibition in vivo at 1 mg/kg [1, 5]: 24 ± 8%
CCOC(=O)c1csc(/C=C/c2cccc(NC(=O)Cc3ccccc3C(=O)O)c2)n1 [Example 18c, (E)-2-[2-[3-[2-[4-(Ethoxycarbonyl)-2-thiazolyl]ethenyl]phenylamino]-2-oxoethyl]benzoic acid]	0.2 mg/kg		inhibition in vivo at 1 mg/kg [1, 5]: 13 ± 3%
O=C(Cc1ccccc1C(=O)O)Nc1cccc(/C=C/c2nc(C(=O)O)cs2)c1 [Example 19]			percent inhibition at 1 mg/kg, previous test ([1]; 1 mg/kg, previous test (footnote ** to the I.V. value)): 0 ± 0%; percent inhibition at 1 mg/kg I.V., LTD4-induced bronchoconstriction (ID50 not determined) [1, 4]: 12 ± 4%
O=C(Cc1ccccc1C(=O)O)Nc1cccc(/C=C/c2csc(C3CCC3)n2)c1 [Example 20h, (E)-2-[2-[3-[2-(2-Cyclobutyl-4-thiazolyl)ethenyl]phenylamino]-2-oxoethyl]benzoic acid]	0.04 mg/kg		inhibition in vivo at 1 mg/kg [1, 5]: 48 ± 6%
O=C(CCc1ccccc1C(=O)O)Nc1cccc(/C=C/c2nc(C3CCC3)cs2)c1 [Example 21b, (E)-2-[3-[3-[2-[4-(Cyclobutyl)-2-thiazolyl]ethenyl]phenylamino]-3-oxopropyl]benzoic acid]	0.02 mg/kg	8.2 mg/kg	
O=C(NCc1ccccc1C(=O)O)c1cccc(/C=C/c2nc(C3CCC3)cs2)c1 [Example 22c, (E)-2-[[[[3-[2-(4-Cyclobutyl-2-thiazolyl)ethenyl]phenyl]carbonyl]amino]methyl]benzoic acid]	0.04 mg/kg	0.1 mg/kg	
O=C(Cc1ccc([N+](=O)[O-])cc1C(=O)O)Nc1cccc(/C=C/c2nc(C3CCC3)cs2)c1 [Example 23, (E)-5-Nitro-2-[2-[3-[2-[4-(cyclobutyl)-2-thiazolyl]ethenyl]phenylamino]-2-oxoethyl]benzoic acid]			percent inhibition at 1 mg/kg I.V., LTD4-induced bronchoconstriction (ID50 not determined) [1, 4]: 36 ± 6%
O=C(Cc1ccc(Cl)cc1C(=O)O)Nc1cccc(/C=C/c2nc(C3CCC3)cs2)c1 [Example 24, (E)-5-chloro-2-[2-[3-[2-[4-(cyclobutyl)-2-thiazolyl]ethenyl]phenylamino]-2-oxoethyl]benzoic acid]	0.01 mg/kg	0.2 mg/kg	
O=C(Cc1c(F)cccc1C(=O)O)Nc1cccc(/C=C/c2nc(C3CCC3)cs2)c1 [Example 25, (E)-3-fluoro-2-[2-[3-[2-[4-(cyclobutyl)-2-thiazolyl]ethenyl]phenylamino]-2-oxoethyl]benzoic acid]	0.03 mg/kg		inhibition in vivo at 1 mg/kg [1, 5]: 36 ± 6%
COc1ccc(CC(=O)Nc2cccc(/C=C/c3nc(C4CCC4)cs3)c2)c(C(=O)O)c1 [Example 26, (E)-5-Methoxy-2-[2-[3-[2-[4-(cyclobutyl)-2-thiazolyl]ethenyl]phenylamino]-2-oxoethyl]benzoic acid]	0.03 mg/kg	0.2 mg/kg	
O=C(Cc1ccc(F)cc1C(=O)O)Nc1cccc(/C=C/c2nc(C3CCC3)cs2)c1 [Example 27, (E)-5-fluoro-2-[2-[3-[2-[4-(cyclobutyl)-2-thiazolyl]ethenyl]phenylamino]-2-oxoethyl]benzoic acid]	0.2 mg/kg		
COc1cc(C(=O)O)ccc1CC(=O)Nc1cccc(/C=C/c2nc(C3CCC3)cs2)c1 [Example 28b, (E)-4-[2-[3-[2-[4-(cyclobutyl)-2-thiazolyl]ethenyl]phenylamino]-2-oxoethyl]-3-methoxybenzoic acid]	0.4 mg/kg		
CC(=O)Oc1ccc(CC(=O)Nc2cccc(/C=C/c3nc(C4CCC4)cs3)c2)c(C(=O)O)c1 [Example 31, (E)-5-Acetoxy-2-[2-[3-[2-[4-(cyclobutyl)-2-thiazolyl]ethenyl]phenylamino]-2-oxoethyl]benzoic Acid]	0.004 mg/kg	0.3 mg/kg	
